Reference: ChEMBL document CHEMBL4507311, “Data for DCP probe A-1155463” (2021)

What was measured:
[1] = test system: Tyrosine-protein kinase ABL1 (Homo sapiens), P00519 [F317L]; conditions: Compound concentration 1000.0 nM
[2] = biological target: Fibroblast growth factor receptor 4 (Homo sapiens) (UniProt P22455); conditions: Compound concentration 1000.0 nM
[3] = biological target: Mitogen-activated protein kinase kinase kinase 15 (Homo sapiens) (UniProt Q6ZN16); conditions: Compound concentration 1000.0 nM
Chain of Mitogen-activated protein kinase kinase kinase 15 (Homo sapiens) (Q6ZN16 whole entry): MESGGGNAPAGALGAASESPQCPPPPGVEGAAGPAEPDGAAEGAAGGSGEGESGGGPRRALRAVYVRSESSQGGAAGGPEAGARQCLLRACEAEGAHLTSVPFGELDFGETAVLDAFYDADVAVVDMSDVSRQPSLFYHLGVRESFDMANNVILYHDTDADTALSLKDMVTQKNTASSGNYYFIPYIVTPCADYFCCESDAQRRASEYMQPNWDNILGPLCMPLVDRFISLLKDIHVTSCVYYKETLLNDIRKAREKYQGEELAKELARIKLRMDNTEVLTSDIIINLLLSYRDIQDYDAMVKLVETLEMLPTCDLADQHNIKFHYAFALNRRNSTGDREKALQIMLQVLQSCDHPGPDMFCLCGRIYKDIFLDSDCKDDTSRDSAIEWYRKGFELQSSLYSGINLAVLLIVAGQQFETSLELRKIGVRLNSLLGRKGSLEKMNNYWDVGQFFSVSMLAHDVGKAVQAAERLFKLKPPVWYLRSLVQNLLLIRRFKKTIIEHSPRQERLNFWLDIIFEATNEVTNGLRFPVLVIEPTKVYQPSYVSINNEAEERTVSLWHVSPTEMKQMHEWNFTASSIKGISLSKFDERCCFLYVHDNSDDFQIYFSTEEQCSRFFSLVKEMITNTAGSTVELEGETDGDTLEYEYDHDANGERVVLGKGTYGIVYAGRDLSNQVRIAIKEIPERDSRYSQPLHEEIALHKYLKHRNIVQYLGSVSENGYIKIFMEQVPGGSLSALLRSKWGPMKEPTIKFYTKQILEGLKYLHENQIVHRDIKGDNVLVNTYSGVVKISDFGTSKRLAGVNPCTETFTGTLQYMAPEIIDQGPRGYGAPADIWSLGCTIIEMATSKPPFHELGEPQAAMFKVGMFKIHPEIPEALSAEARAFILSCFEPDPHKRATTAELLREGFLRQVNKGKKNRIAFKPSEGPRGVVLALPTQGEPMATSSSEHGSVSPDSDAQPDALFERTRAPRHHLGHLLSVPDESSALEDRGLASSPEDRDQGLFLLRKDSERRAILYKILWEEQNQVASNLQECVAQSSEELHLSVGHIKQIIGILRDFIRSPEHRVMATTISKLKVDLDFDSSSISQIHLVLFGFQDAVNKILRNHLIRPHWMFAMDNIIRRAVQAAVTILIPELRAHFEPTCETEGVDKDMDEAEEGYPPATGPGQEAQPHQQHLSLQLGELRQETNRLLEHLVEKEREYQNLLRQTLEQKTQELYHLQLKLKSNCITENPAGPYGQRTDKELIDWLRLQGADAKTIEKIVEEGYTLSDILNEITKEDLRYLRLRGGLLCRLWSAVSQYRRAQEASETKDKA

[4] = biological target: Mitotic checkpoint serine/threonine-protein kinase BUB1 (Homo sapiens) (UniProt O43683); conditions: Compound concentration 1000.0 nM
[5] = biological target: MAP kinase-interacting serine/threonine-protein kinase 2 (Homo sapiens) (UniProt Q9HBH9); conditions: Compound concentration 1000.0 nM
Chain of MAP kinase-interacting serine/threonine-protein kinase 2 (Homo sapiens) (Q9HBH9 whole entry, looked up): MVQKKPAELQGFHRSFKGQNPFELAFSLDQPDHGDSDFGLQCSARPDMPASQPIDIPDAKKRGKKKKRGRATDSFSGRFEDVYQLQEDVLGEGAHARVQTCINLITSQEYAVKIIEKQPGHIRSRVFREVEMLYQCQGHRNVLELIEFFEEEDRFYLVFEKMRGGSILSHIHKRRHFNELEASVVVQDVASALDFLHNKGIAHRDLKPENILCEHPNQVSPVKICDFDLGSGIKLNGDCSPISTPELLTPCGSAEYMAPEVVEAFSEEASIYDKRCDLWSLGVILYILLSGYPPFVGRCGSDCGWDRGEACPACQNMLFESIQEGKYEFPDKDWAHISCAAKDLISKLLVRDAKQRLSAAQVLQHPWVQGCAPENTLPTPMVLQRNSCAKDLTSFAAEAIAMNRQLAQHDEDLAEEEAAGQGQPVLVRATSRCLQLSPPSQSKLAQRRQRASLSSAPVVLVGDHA

[6] = biological target: Fibroblast growth factor receptor 2 (Homo sapiens) (UniProt P21802); conditions: Compound concentration 1000.0 nM
[7] = test system: Receptor-type tyrosine-protein kinase FLT3 (Homo sapiens), P36888 [UNDEFINED MUTATION]; conditions: Compound concentration 1000.0 nM
[8] = biological target: Receptor-interacting serine/threonine-protein kinase 4 (Homo sapiens) (UniProt P57078); conditions: Compound concentration 1000.0 nM
[9] = biological target: Dual specificity tyrosine-phosphorylation-regulated kinase 1A (Homo sapiens) (UniProt Q13627); conditions: Compound concentration 1000.0 nM
[10] = biological target: Tyrosine-protein kinase ABL1 (Homo sapiens) (UniProt P00519); conditions: Compound concentration 1000.0 nM
Chain of Tyrosine-protein kinase ABL1 (Homo sapiens) (P00519 whole entry): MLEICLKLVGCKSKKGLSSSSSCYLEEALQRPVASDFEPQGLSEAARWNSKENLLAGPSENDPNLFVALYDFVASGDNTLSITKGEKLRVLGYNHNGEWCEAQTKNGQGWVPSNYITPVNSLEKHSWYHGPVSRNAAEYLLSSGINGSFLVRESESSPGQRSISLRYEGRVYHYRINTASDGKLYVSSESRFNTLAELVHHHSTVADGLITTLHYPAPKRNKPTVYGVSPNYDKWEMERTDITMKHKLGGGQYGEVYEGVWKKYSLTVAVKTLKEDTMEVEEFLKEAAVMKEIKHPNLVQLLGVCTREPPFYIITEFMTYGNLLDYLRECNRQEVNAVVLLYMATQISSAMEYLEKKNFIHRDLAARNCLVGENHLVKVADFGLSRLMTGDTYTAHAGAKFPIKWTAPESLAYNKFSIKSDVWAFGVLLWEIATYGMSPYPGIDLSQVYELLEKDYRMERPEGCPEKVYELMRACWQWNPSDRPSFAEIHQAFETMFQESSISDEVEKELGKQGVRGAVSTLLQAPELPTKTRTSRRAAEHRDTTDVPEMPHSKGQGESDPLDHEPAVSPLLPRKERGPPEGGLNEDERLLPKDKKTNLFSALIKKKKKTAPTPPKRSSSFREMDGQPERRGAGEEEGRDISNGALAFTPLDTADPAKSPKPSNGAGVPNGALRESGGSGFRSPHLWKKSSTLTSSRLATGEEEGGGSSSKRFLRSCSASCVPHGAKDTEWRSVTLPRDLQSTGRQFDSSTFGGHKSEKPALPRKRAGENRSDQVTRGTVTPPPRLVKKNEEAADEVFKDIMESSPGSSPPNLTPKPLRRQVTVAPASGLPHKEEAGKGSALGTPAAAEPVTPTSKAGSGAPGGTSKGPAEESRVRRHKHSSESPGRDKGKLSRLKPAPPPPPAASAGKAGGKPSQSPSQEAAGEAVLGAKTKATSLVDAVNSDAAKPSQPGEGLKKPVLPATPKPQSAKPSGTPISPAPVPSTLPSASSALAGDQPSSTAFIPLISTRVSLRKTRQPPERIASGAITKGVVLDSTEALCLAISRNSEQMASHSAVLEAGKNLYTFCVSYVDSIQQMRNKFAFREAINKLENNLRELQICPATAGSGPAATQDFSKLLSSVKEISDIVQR

[11] = biological target: Cyclin-dependent kinase-like 5 (Homo sapiens) (UniProt O76039); conditions: Compound concentration 1000.0 nM
[12] = biological target: Mitogen-activated protein kinase kinase kinase kinase 5 (Homo sapiens) (UniProt Q9Y4K4); conditions: Compound concentration 1000.0 nM
[13] = biological target: Myosin light chain kinase family member 4 (Homo sapiens) (UniProt Q86YV6); conditions: Compound concentration 1000.0 nM
[14] = biological target: Serine/threonine-protein kinase ULK1 (Homo sapiens) (UniProt O75385); conditions: Compound concentration 1000.0 nM
[15] = biological target: Serine/threonine-protein kinase 16 (Homo sapiens) (UniProt O75716); conditions: Compound concentration 1000.0 nM
[16] = biological target: Membrane-associated tyrosine- and threonine-specific cdc2-inhibitory kinase (Homo sapiens) (UniProt Q99640); conditions: Compound concentration 1000.0 nM
[17] = biological target: Serine/threonine-protein kinase PLK3 (Homo sapiens) (UniProt Q9H4B4); conditions: Compound concentration 1000.0 nM
[18] = biological target: Beta-3 adrenergic receptor (Homo sapiens) (UniProt P13945); conditions: Compound concentration 10.0 uM
[19] = biological target: Histamine H1 receptor (Homo sapiens) (UniProt P35367); conditions: Compound concentration 10.0 uM
[20] = biological target: Tyrosine-protein kinase ZAP-70 (Homo sapiens) (UniProt P43403); conditions: Compound concentration 1000.0 nM
[21] = biological target: Serine/threonine-protein kinase DCLK3 (Homo sapiens) (UniProt Q9C098); conditions: Compound concentration 1000.0 nM
[22] = biological target: Maternal embryonic leucine zipper kinase (Homo sapiens) (UniProt Q14680); conditions: Compound concentration 1000.0 nM
[23] = biological target: Serine/threonine-protein kinase Nek7 (Homo sapiens) (UniProt Q8TDX7); conditions: Compound concentration 1000.0 nM
[24] = biological target: Serine/threonine-protein kinase PLK1 (Homo sapiens) (UniProt P53350); conditions: Compound concentration 1000.0 nM
[25] = biological target: Tyrosine-protein kinase ITK/TSK (Homo sapiens) (UniProt Q08881); conditions: Compound concentration 1000.0 nM
[26] = biological target: Mitogen-activated protein kinase 13 (Homo sapiens) (UniProt O15264); conditions: Compound concentration 1000.0 nM
[27] = biological target: Insulin-like growth factor 1 receptor (Homo sapiens) (UniProt P08069); conditions: Compound concentration 1000.0 nM
[28] = biological target: Histamine H2 receptor (Homo sapiens) (UniProt P25021); conditions: Compound concentration 10.0 uM
[29] = biological target: Sigma intracellular receptor 2 (Homo sapiens, UniProt Q5BJF2); conditions: Compound concentration 10.0 uM
[30] = biological target: Phosphatidylinositol 4,5-bisphosphate 3-kinase catalytic subunit alpha isoform (Homo sapiens) (UniProt P42336); conditions: Compound concentration 1000.0 nM
[31] = biological target: Tyrosine-protein kinase Blk (Homo sapiens) (UniProt P51451); conditions: Compound concentration 1000.0 nM
[32] = test system: Tyrosine-protein kinase ABL1 (Homo sapiens), P00519 [F317I]; conditions: Compound concentration 1000.0 nM
Chain of Tyrosine-protein kinase ABL1 (Homo sapiens), P00519 [F317I] (P00519 whole entry F317I): as the sequence (P00519 whole entry) above, with F317I counted along it

[33] = biological target: Cyclin-dependent kinase 2 (Homo sapiens) (UniProt P24941); conditions: Compound concentration 1000.0 nM
[34] = biological target: Serine/threonine-protein kinase Sgk1 (Homo sapiens) (UniProt O00141); conditions: Compound concentration 1000.0 nM
[35] = biological target: Beta-adrenergic receptor kinase 1 (Homo sapiens) (UniProt P25098); conditions: Compound concentration 1000.0 nM
[36] = biological target: Tyrosine-protein kinase Yes (Homo sapiens) (UniProt P07947); conditions: Compound concentration 1000.0 nM
Chain of Tyrosine-protein kinase Yes (Homo sapiens) (P07947 2-543 limits assumed): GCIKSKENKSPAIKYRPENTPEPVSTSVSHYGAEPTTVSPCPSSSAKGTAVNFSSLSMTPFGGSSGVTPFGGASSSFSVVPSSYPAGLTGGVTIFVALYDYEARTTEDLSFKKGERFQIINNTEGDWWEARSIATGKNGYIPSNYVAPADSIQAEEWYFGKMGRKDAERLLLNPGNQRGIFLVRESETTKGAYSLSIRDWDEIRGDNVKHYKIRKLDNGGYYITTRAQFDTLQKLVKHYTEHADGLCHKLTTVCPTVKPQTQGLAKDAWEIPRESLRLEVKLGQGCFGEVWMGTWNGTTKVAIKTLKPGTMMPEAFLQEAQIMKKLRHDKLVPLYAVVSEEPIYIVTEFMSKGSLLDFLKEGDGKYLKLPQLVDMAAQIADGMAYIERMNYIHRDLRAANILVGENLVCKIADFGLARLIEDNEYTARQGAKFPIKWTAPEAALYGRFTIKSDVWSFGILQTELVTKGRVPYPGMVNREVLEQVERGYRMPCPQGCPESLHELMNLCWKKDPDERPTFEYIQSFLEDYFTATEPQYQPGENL

[37] = biological target: Tyrosine-protein kinase Fgr (Homo sapiens) (UniProt P09769); conditions: Compound concentration 1000.0 nM
[38] = biological target: Aurora kinase B (Homo sapiens) (UniProt Q96GD4); conditions: Compound concentration 1000.0 nM
[39] = biological target: Ribosomal protein S6 kinase alpha-1 (Homo sapiens) (UniProt Q15418); conditions: Compound concentration 1000.0 nM
[40] = biological target: Calcium/calmodulin-dependent protein kinase type II subunit delta (Homo sapiens) (UniProt Q13557); conditions: Compound concentration 1000.0 nM
[41] = biological target: Hormonally up-regulated neu tumor-associated kinase (Homo sapiens) (UniProt P57058); conditions: Compound concentration 1000.0 nM
[42] = biological target: Cyclin-dependent kinase 4 (Homo sapiens) (UniProt P11802); conditions: Compound concentration 1000.0 nM
[43] = biological target: Delta-type opioid receptor (Homo sapiens, UniProt P41143); assay: GPCRScan assay: inhibition of DOR; set-up: radioligand conc. used [nm] 1.0 – 2.0, parental cells stable HEK
[44] = biological target: Dual specificity mitogen-activated protein kinase kinase 3 (Homo sapiens) (UniProt P46734); conditions: Compound concentration 1000.0 nM
[45] = biological target: Cyclin-dependent kinase 13 (Homo sapiens) (UniProt Q14004); conditions: Compound concentration 1000.0 nM
Chain of Cyclin-dependent kinase 13 (Homo sapiens) (Q14004 whole entry, looked up): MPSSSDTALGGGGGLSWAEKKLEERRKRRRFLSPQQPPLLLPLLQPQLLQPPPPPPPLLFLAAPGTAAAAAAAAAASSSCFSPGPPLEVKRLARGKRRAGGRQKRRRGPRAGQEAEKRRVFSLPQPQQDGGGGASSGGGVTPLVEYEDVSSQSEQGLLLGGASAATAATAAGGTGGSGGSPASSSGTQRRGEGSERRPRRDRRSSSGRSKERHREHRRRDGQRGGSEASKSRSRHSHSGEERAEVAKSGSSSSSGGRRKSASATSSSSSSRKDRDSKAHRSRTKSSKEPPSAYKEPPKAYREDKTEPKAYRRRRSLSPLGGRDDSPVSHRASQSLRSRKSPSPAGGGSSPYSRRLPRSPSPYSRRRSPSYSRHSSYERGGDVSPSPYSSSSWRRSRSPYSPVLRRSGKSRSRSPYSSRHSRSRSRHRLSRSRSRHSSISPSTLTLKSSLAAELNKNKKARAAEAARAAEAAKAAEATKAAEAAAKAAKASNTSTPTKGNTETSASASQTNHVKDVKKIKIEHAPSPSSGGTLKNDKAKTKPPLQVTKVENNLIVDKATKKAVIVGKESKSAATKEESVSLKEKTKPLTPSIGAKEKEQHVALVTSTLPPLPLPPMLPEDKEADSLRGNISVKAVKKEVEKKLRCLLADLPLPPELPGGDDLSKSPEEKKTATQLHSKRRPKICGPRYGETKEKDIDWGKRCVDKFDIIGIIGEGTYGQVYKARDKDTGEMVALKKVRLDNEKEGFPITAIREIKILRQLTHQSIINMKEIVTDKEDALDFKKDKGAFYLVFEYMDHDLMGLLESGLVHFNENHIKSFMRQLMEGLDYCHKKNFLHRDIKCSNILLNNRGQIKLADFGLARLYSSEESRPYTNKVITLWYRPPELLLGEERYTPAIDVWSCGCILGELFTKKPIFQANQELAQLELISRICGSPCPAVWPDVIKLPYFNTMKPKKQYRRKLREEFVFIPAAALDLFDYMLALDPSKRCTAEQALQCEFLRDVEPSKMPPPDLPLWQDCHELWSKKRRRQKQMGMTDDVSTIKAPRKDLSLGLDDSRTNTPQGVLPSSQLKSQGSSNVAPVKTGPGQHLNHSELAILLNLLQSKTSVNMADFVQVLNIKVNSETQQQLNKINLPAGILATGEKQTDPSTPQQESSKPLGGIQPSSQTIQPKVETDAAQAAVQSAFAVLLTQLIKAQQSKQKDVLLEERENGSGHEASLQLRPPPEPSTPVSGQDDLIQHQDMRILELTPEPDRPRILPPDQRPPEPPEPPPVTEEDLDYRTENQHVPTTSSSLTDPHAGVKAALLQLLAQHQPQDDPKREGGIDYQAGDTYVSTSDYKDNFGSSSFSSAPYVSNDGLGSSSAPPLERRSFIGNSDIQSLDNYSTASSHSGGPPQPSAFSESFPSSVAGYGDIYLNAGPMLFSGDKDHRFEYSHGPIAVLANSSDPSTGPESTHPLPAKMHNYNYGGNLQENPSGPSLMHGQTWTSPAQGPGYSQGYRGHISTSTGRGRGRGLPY

Chain of Tyrosine-protein kinase ABL1 (Homo sapiens), P00519 [F317L] (P00519 whole entry F317L): as the sequence (P00519 whole entry) above, with F317L counted along it

SMILES: CN(C)CC#Cc1ccc(OCCCc2sc(N3CCc4cccc(C(=O)Nc5nc6ccccc6s5)c4C3)nc2C(=O)O)c(F)c1 [A-1155463]
- residual activity [1]: 100%
- residual activity [2]: 100%
- residual activity [3]: 99%
- residual activity [4]: 81%
- residual activity [5]: 75%
- residual activity [6]: 98%
- residual activity [7]: 100%
- residual activity [8]: 100%
- residual activity [9]: 88%
- residual activity [10]: 100%
- residual activity [11]: 96%
- residual activity [12]: 91%
- residual activity [13]: 99%
- residual activity [14]: 100%
- residual activity [15]: 92%
- residual activity [16]: 71%
- residual activity [17]: 92%
- inhibition [18]: 3.53%
- inhibition [19]: 39.8%
- residual activity [20]: 100%
- residual activity [21]: 100%
- residual activity [22]: 78%
- residual activity [23]: 99%
- residual activity [24]: 100%
- residual activity [25]: 100%
- residual activity [26]: 97%
- residual activity [27]: 98%
- inhibition [28]: 23.2%
- inhibition [29]: 83%
- residual activity [30]: 89%
- residual activity [31]: 92%
- residual activity [32]: 100%
- residual activity [33]: 100%
- residual activity [34]: 100%
- residual activity [35]: 100%
- residual activity [36]: 100%
- residual activity [37]: 100%
- residual activity [38]: 79%
- residual activity [39]: 93%
- residual activity [40]: 72%
- residual activity [41]: 56%
- residual activity [42]: 100%
- Ki [43]: 2120 nM
- residual activity [44]: 100%
- residual activity [45]: 100%
